Test: Water solubility of 5-FU
Assay type: physicochemical
Conditions: read-out: measured water solubility
Method: A hyaluronic acid formulation that includes 5-FU can be prepared as described. 5-FU is combined with 10 mg hyaluronic acid (1 MDa), 1 ml sterile water. The product is stirred until a uniform gel solution, free of particular polymer or drug is achieved. Alternatively, the HA and water may be combined, stirred and autoclaved to homogenize the solution. After dissolving the polymer, the 5-FU may be added with stirring. NaCl is added (as required for isotonicity), and the pH is adjusted to between 6-8 with NaOH and HCl as required. […] The formulation may be injected to the site of treatment (e.g., into a joint) in a volume appropriate to that site. For example, a knee joint might receive a 2 ml injection, whereas a finger joint or tendon sheath may receive substantially less.

O=c1[nH]cc(F)c(=O)[nH]1 [Formula 5-FU, 5-Fluorouracil]
solubility: 12.9 mg/mL
